Key:
[1] = biological target: T1, Orexin/Hypocretin receptor type 1 (Homo sapiens, UniProt O43613); experiment: Antagonist activity at OX1R (unknown origin) by cell-based calcium assay; type: functional
T1 sequence (O43613 whole entry): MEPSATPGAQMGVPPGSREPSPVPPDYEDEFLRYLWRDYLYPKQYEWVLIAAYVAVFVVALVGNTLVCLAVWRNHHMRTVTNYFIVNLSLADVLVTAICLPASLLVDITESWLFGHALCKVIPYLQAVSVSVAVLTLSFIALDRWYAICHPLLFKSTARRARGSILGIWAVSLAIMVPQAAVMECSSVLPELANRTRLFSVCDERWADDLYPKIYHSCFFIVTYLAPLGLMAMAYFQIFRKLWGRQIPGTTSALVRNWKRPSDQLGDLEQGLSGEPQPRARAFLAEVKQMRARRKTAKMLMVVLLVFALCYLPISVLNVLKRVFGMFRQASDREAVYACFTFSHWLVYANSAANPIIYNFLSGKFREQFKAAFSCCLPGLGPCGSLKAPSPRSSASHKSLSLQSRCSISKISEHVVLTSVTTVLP

Orexin receptor type 2 = biological target: T2, Orexin receptor type 2 (Homo sapiens, UniProt O43614); experiment: Antagonist activity at OX2R (unknown origin) by cell-based calcium assay
T2 sequence (O43614 whole entry): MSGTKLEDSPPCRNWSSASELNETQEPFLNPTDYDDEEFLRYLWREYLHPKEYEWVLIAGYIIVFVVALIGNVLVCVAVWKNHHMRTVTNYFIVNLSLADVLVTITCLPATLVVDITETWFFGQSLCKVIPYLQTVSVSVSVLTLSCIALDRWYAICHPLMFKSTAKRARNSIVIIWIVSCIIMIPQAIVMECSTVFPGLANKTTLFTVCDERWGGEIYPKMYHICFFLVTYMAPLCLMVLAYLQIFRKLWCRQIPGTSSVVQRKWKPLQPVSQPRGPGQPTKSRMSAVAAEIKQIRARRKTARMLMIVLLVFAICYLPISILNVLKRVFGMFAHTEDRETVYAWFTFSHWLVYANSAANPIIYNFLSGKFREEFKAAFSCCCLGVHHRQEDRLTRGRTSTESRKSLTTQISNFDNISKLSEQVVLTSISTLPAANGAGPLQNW

Row | Structure (SMILES) | Ki [1] | IC50 (Orexin receptor type 2) | Ki (Orexin receptor type 2)
1 | COc1ccc2c3c1O[C@H]1[C@H](N(C)C(=O)/C=C/c4ccoc4)CC[C@@]4(O)[C@@H](C2)N(S(=O)(=O)c2ccccc2)CC[C@]314 | 0.0168 µM | > 10 µM | –
2 | COc1ccc2c3c1O[C@H]1[C@H](N(C)C(=O)/C=C/c4ccoc4)CC[C@@]4(O)[C@@H](C2)N(S(=O)(=O)c2ccccc2N(C)C)CC[C@]314 | 0.00475 µM | – | 1.3 µM
3 | COc1ccc2c3c1O[C@H]1[C@H](N(C)C(=O)/C=C/c4ccoc4)CC=C4[C@@H](C2)N(S(=O)(=O)c2ccccc2)CC[C@]431 | 0.00234 µM | > 10 µM | –
4 | COc1ccc2c3c1O[C@H]1[C@H](N(C)C(=O)/C=C/c4ccoc4)CC[C@H]4[C@@H](C2)N(S(=O)(=O)c2ccccc2)CC[C@@]341 | 0.0236 µM | > 10 µM | –
5 | COc1ccc2c3c1O[C@H]1[C@H](N(C)C(=O)/C=C/c4ccoc4)CC[C@H]4[C@@H](C2)N(S(=O)(=O)c2ccccc2N(C)C)CC[C@@]341 | 0.0535 µM | > 10 µM | –
6 | COc1ccc2c3c1O[C@H]1[C@H](N(C)C(=O)/C=C/c4ccoc4)CC=C4[C@@H](C2)N(S(=O)(=O)c2ccccc2N(C)C)CC[C@]431 | 0.00882 µM | > 10 µM | –
